Where two headings read alike, the source gives them in different places.
Tests used:
[1] = biological target: T1, human α1D‐adrenoceptor (full length) (Homo sapiens, UniProt P25100); test: ERK1/2‐phosphorylation (Surefire Alphascreen), CHO‐α1D cells; assay type: cell-based
T1 construct: human α1D‐adrenoceptor (full length) were used; expressed in transfected cells; host or cells: CHO-K1
T1 sequence (P25100 1-572): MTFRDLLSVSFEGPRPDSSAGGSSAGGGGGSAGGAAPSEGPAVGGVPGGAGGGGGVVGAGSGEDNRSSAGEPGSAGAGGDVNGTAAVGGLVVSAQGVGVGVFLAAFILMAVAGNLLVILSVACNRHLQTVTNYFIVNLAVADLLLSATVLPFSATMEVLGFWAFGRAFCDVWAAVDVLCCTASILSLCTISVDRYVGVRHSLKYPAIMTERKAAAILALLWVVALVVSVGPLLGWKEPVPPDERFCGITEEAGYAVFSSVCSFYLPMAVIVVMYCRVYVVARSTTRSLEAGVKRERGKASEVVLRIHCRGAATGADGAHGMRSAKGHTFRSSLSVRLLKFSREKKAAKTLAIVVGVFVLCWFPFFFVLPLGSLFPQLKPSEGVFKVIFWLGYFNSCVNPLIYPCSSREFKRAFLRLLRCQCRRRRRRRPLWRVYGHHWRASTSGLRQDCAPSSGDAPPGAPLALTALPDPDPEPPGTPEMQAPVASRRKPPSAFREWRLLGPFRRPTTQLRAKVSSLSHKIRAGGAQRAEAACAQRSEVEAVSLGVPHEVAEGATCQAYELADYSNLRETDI

human α1B‐adrenoceptor [2] = biological target: T2, human α1B‐adrenoceptor (Homo sapiens, UniProt P35368); test: Intracellular free calcium mobilization, CHO‐α1B cells; assay type: cell-based
T2 construct: expressed in transfected cells; host or cells: CHO-K1
T2 sequence (P35368 1-520): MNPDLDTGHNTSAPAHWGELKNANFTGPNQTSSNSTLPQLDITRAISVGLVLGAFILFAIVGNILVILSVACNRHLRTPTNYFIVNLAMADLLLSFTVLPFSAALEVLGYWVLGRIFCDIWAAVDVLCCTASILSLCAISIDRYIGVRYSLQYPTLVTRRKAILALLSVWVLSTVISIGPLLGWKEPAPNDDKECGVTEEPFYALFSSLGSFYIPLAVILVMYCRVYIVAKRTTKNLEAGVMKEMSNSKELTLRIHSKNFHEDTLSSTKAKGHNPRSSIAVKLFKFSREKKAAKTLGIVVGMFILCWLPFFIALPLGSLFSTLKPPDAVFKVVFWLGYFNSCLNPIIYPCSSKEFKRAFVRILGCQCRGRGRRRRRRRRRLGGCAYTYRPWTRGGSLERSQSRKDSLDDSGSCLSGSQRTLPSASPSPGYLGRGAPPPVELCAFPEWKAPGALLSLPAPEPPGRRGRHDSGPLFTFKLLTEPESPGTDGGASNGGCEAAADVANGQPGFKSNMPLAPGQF

[3] = test system: parental CHO cell line without any transfected receptors; test: ERK1/2‐phosphorylation, parent CHO cells without transfected receptors; assay type: cell-based, Chinese hamster; conditions: Cricetulus griseus, CHO; read-out: ERK1/2-phosphorylation % PDBu at 100μM
[4] = test system: parental CHO cell line without any transfected receptors; test: Forskolin‐stimulated cAMP accumulation, parent CHO cells without transfected receptors; assay type: cell-based, Chinese hamster; conditions: CHO cells without transfected receptors; in presence of forskolin
human α1A‐adrenoceptor [5] = biological target: T3, human α1A‐adrenoceptor (Homo sapiens, UniProt P35348); test: ^3H‐prazosin whole‐cell radioligand binding, CHO‐α1A cells
T3 construct: expressed in transfected cells; host or cells: CHO-K1
T3 sequence (P35348 1-466): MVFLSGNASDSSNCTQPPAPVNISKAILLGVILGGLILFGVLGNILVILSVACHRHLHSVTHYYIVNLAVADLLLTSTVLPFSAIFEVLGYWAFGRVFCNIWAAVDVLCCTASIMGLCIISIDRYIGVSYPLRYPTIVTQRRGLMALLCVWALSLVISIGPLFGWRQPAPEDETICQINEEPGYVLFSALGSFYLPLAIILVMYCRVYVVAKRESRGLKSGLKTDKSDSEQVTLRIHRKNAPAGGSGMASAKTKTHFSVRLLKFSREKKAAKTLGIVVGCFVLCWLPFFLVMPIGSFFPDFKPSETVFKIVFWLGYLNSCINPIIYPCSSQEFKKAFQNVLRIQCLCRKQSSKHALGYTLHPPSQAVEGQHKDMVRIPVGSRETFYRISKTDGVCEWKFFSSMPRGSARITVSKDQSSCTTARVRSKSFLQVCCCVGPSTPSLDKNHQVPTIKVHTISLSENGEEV

human α1B‐adrenoceptor [6] = biological target: T2, human α1B‐adrenoceptor; test: ^3H‐cAMP accumulation in the presence of 10 μM forskolin, CHO‐α1B cells; assay type: cell-based; conditions: CHO‐α1B cells
human α1B‐adrenoceptor [7] = biological target: T2, human α1B‐adrenoceptor; test: ERK1/2‐phosphorylation (Surefire Alphascreen), CHO‐α1B cells; assay type: cell-based
human α1A‐adrenoceptor [8] = biological target: T3, human α1A‐adrenoceptor; test: Intracellular free calcium mobilization, CHO‐α1A cells; assay type: cell-based
human α1B‐adrenoceptor [9] = biological target: T2, human α1B‐adrenoceptor; test: ^3H‐cAMP accumulation, CHO‐α1B cells; assay type: cell-based; conditions: CHO‐α1B cells; for cAMP accumulation % forskolin: % forskolin maximum response
human α1A‐adrenoceptor [10] = biological target: T3, human α1A‐adrenoceptor; test: ^3H‐cAMP accumulation, CHO‐α1A cells; assay type: cell-based; conditions: CHO‐α1A cells; for cAMP accumulation % forskolin: % of 10 µM forskolin response
[11] = biological target: T1, human α1D‐adrenoceptor (full length); test: ^3H‐prazosin whole‐cell radioligand binding, CHO‐α1D cells; conditions: for Kd: CHO‐α1D cells
human α1B‐adrenoceptor [12] = biological target: T2, human α1B‐adrenoceptor; test: ^3H‐prazosin whole‐cell radioligand binding, CHO‐α1B cells; conditions: for Kd: CHO‐α1B cells
[13] = biological target: T1, human α1D‐adrenoceptor (full length); test: Intracellular free calcium mobilization, CHO‐α1D cells; assay type: cell-based
human α1A‐adrenoceptor [14] = biological target: T3, human α1A‐adrenoceptor; test: ^3H‐cAMP accumulation in the presence of 10 μM forskolin, CHO‐α1A cells; assay type: cell-based; conditions: CHO‐α1A cells
human α1A‐adrenoceptor [15] = biological target: T3, human α1A‐adrenoceptor; test: ERK1/2‐phosphorylation (Surefire Alphascreen), CHO‐α1A cells; assay type: cell-based
[16] = CHO‐α1D cells, log values given negative
[17] = fold increase of the forskolin response

## Brc1c(NC2=NCCN2)ccc2nccnc12 [Brimonidine]
[1]
  ERK1/2‐phosphorylation % PDBu: No response
[1]; [16]
  ERK1/2‐phosphorylation Log EC50: No response
Human α1B‐adrenoceptor [2]
  Intracellular calcium release % ionomycin: 35.8 ± 2.4%
  Log efficacy ratio KD /EC50: 2.33
Human α1B‐adrenoceptor [2]; CHO‐α1B cells, given as log EC50 (negative numbers), read-out: Intracellular calcium release Log EC50 (converted)
  EC50: 97.7 nM
[3]
  Emax at 100 µM: 2.3 ± 1.7%
[4]
  cAMP accumulation (in presence of forskolin) Log EC50: No response
Human α1A‐adrenoceptor [5]
  Affinity selectivity ratio α1A vs α1B: 4.8 fold
  Affinity selectivity ratio α1A vs α1D: 1.2 fold
Human α1A‐adrenoceptor [5]; Log KD α1A, ^3H‐prazosin whole cell binding, CHO‐α1A cells, given as log KD (negative), mean ± SEM
  Kd: 4370 nM
Human α1B‐adrenoceptor [6]; [17]
  cAMP accumulation (in presence of forskolin) Fold increase: 1.58 ± 0.07 fold
Human α1B‐adrenoceptor [6]; in presence of forskolin, read-out: cAMP accumulation (in presence of forskolin) Log EC50 (converted)
  EC50: 105 nM
Human α1B‐adrenoceptor [7]
  ERK1/2‐phosphorylation % PDBu: 41.2 ± 6.2%
Human α1B‐adrenoceptor [7]; CHO‐α1B cells, for bi‐phasic responses the initial stimulatory part, read-out: ERK1/2‐phosphorylation Log EC50 (converted)
  EC50: 724 nM
Human α1A‐adrenoceptor [8]
  Intracellular calcium release % ionomycin: 47.8 ± 4.1%
  Log efficacy ratio KD /EC50: 1.57
Human α1A‐adrenoceptor [8]; CHO‐α1A cells, given as log EC50 (negative), read-out: Intracellular calcium release Log EC50 (converted)
  EC50: 117 nM
Human α1B‐adrenoceptor [9]
  cAMP accumulation % forskolin: 4.5 ± 1.6%
Human α1B‐adrenoceptor [9]; read-out: cAMP accumulation Log EC50 (converted)
  EC50: 129 nM
Human α1A‐adrenoceptor [10]; 5 h, read-out: cAMP accumulation Log EC50 (converted)
  EC50: 5750 nM
Human α1A‐adrenoceptor [10]
  cAMP accumulation % forskolin: 17.8 ± 1.7%
[11]
  Affinity selectivity ratio α1B vs α1D: 3.9 fold
[11]; 3H‐prazosin binding Log KD, whole‐cell binding (from Table 1), log values given negative
  Kd: 5370 nM
[11]; Log KD α1D, ^3H‐prazosin whole cell binding, given as log KD (negative), mean ± SEM, 'early plateau' = specific binding not fully inhibited
  Kd: 5370 nM
Human α1B‐adrenoceptor [12]; Log KD α1B, ^3H‐prazosin whole cell binding, given as log KD (negative), mean ± SEM
  Kd: 20900 nM
Human α1B‐adrenoceptor [12]; Log KD, ^3H‐prazosin binding, whole‐cell binding (from Table 1), given as log KD (negative numbers)
  Kd: 20900 nM
[13]
  Intracellular calcium release % ionomycin: No response
[13]; [16]
  Intracellular calcium release Log EC50: No response
Human α1A‐adrenoceptor [14]; 10 μM forskolin, read-out: cAMP accumulation (in presence of forskolin) Log EC50 (converted)
  EC50: 1580 nM
Human α1A‐adrenoceptor [14]; [17]
  cAMP accumulation (in presence of forskolin) Fold increase: 1.96 ± 0.05 fold
Human α1A‐adrenoceptor [15]
  ERK1/2‐phosphorylation % PDBu: 86.4 ± 3.6%
Human α1A‐adrenoceptor [15]; CHO‐α1A cells, 2–4 min, ^a bi‐phasic: initial stimulatory part, ^b also active in parent CHO cells, read-out: ERK1/2‐phosphorylation Log EC50 (converted)
  EC50: 363 nM

## Nc1cc(Cl)c(N=C2NCCN2)c(Cl)c1 [para‐amino‐clonidine]
[1]
  ERK1/2‐phosphorylation % PDBu: No response
Human α1B‐adrenoceptor [2]
  Intracellular calcium release % ionomycin: 33.7 ± 2.4%
  Intracellular calcium release Log EC50: −7.79 ± 0.05
Human α1A‐adrenoceptor [5]
  Log KD α1A, ^3H‐prazosin whole cell binding: −6.23 ± 0.03
Human α1B‐adrenoceptor [6]; in presence of forskolin
  cAMP accumulation (in presence of forskolin) Log EC50: −7.31 ± 0.11
Human α1B‐adrenoceptor [7]
  ERK1/2‐phosphorylation % PDBu: 32.8 ± 6.9%
Human α1A‐adrenoceptor [8]
  Intracellular calcium release % ionomycin: 52.0 ± 2.8%
  Intracellular calcium release Log EC50: −8.70 ± 0.09
Human α1B‐adrenoceptor [9]
  cAMP accumulation Log EC50: −7.48 ± 0.43
  cAMP accumulation % forskolin: 2.5 ± 0.6%
Human α1A‐adrenoceptor [10]; 5 h
  cAMP accumulation Log EC50: −6.76 ± 0.03
Human α1A‐adrenoceptor [10]
  cAMP accumulation % forskolin: 26.6 ± 3.2%
[11]
  3H‐prazosin binding Log KD: −5.39
  Log KD α1D, ^3H‐prazosin whole cell binding: −5.39 ± 0.16
Human α1B‐adrenoceptor [12]
  Log KD α1B, ^3H‐prazosin whole cell binding: −5.17 ± 0.06
  Log KD, ^3H‐prazosin binding: −5.17
[13]
  Intracellular calcium release % ionomycin: No response
  Intracellular calcium release Log EC50: No response
Human α1A‐adrenoceptor [14]; 10 μM forskolin
  cAMP accumulation (in presence of forskolin) Log EC50: −7.36 ± 0.05
Human α1A‐adrenoceptor [15]
  ERK1/2‐phosphorylation % PDBu: 84.5 ± 4.9%

— article PMC8343220, “The selectivity of α‐adrenoceptor agonists for the human α1A, α1B, and α1D‐adrenoceptors” (Pharmacology Research & Perspectives, 2021)
